Source: PMC6972920, “Structure-based development of caged dopamine D2/D3 receptor antagonists” (Scientific Reports, 2020)

Assays:
[1] = biological target: T1, human dopamine receptor subtype D4.4 (Homo sapiens, UniProt P21917); experiment: Radioligand displacement, [3H]spiperone, CHO cell membranes; format: binding; details: [3H]spiperone; mean ± SEM of 4-9 experiments; compounds 1, 2, 3: ± SD of two experiments; read-out: Ki value D4.4
T1 sequence (P21917 1-419): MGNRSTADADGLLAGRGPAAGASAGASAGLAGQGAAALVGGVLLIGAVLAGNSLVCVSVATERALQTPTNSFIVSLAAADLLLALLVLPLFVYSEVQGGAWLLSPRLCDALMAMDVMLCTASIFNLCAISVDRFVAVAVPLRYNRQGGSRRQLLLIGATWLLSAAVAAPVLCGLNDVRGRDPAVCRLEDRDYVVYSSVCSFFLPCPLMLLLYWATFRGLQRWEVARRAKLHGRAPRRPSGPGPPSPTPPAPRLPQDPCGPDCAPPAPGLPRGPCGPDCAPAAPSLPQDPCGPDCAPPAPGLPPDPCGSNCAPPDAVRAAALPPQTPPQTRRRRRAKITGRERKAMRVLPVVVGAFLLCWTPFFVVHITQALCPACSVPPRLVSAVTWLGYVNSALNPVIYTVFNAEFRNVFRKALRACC

[2] = biological target: T2, human serotonin 5-HT1A receptor (Homo sapiens, UniProt P08908); experiment: Competition binding, [3H]WAY600135, HEK293T membranes; details: ± SD of two experiments
T2 construct: expressed in transfected cells; host or cells: HEK293T cells, transient transfection
T2 sequence (P08908 1-422): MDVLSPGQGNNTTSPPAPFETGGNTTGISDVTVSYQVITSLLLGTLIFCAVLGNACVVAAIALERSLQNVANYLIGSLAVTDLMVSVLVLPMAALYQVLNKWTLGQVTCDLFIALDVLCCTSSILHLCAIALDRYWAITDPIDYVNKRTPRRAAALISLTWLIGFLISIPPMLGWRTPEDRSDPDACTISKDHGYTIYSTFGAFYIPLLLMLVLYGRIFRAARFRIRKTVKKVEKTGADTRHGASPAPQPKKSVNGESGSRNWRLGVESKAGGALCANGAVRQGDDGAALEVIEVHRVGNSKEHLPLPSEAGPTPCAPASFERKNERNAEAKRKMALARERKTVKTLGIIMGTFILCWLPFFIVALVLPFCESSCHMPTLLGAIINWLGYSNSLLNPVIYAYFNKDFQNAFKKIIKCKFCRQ

[3] = biological target: T3, human adrenergic α2A receptor (Homo sapiens, UniProt P08913); experiment: Competition binding, [3H]RX821002, HEK293T membranes; details: [3H]RX821002; ± SD of two experiments
T3 construct: expressed in transfected cells; host or cells: HEK293T cells, transient transfection
T3 sequence (P08913 1-465): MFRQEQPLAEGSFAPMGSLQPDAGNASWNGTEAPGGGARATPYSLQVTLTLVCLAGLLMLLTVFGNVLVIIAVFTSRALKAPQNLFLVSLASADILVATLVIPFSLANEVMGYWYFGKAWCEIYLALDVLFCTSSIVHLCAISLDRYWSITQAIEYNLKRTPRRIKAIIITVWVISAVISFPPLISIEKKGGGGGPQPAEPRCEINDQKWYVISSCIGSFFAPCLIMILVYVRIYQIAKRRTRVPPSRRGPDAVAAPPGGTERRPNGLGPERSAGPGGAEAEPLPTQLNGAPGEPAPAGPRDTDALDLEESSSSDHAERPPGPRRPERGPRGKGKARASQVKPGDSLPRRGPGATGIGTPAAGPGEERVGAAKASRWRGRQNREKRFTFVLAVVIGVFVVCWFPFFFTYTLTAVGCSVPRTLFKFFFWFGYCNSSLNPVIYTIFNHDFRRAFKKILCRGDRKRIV

[4] = tested on: D2 and D3 receptors; experiment: Radioligand binding, summary over D2 and D3 subtypes; set-up: species or system human
[5] = biological target: T4, human adrenergic β2 receptor (Homo sapiens, UniProt P07550); experiment: Competition binding, [3H]CGP12177, HEK293T membranes; details: ± SD of two experiments
T4 construct: expressed in transfected cells; host or cells: HEK293T cells, transient transfection
T4 sequence (P07550 whole entry): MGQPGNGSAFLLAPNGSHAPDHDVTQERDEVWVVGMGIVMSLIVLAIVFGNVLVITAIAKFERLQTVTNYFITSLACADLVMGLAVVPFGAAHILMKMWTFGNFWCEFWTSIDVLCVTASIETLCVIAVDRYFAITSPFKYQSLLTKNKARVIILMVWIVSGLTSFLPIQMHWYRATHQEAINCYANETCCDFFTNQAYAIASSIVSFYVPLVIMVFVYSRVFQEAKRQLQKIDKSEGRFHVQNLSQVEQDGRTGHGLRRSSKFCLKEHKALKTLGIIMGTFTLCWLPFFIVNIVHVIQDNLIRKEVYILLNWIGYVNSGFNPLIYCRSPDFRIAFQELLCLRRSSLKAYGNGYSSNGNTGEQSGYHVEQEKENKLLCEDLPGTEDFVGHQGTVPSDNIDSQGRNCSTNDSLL

[6] = biological target: T5, human dopamine D5 receptor (Homo sapiens, UniProt P21918); experiment: Competition binding, [3H]SCH23390, HEK293T membranes
T5 construct: expressed in transfected cells; host or cells: HEK293T cells, transient transfection
T5 sequence (P21918 whole entry): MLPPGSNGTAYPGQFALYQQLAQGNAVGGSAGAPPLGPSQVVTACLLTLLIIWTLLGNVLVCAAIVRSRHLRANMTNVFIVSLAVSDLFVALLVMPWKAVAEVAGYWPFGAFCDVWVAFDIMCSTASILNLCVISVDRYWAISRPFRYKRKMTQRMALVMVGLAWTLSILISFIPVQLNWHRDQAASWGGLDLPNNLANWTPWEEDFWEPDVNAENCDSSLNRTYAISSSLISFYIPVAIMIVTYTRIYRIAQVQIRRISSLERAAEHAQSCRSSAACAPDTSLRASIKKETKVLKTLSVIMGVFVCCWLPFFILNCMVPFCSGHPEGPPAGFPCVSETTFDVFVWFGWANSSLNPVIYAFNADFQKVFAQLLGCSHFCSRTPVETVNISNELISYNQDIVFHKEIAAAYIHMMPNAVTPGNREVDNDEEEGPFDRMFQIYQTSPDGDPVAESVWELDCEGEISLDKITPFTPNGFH

[7] = biological target: T6, human dopamine D1 receptor (Homo sapiens, UniProt P21728); experiment: as above; details: read-out: Ki value D1
T6 construct: expressed in transfected cells; host or cells: HEK293T cells, transient transfection
T6 sequence (P21728 whole entry): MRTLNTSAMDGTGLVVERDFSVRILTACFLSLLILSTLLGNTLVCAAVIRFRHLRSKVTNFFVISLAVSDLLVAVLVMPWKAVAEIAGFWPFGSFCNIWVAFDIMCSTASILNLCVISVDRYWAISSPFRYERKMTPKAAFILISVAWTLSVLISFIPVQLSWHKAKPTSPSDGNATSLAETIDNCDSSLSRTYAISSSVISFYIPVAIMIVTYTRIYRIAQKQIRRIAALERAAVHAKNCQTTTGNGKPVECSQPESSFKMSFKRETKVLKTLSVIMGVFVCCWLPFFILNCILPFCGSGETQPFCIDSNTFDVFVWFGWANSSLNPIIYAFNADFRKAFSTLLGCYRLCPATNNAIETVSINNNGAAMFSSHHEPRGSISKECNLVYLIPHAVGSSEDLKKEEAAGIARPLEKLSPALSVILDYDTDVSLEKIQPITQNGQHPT

[8] = biological target: T7, human adrenergic α1A receptor (Homo sapiens, UniProt P35348); experiment: Competition binding, [3H]prazosin, HEK293T membranes; details: ± SD of two experiments
T7 construct: expressed in transfected cells; host or cells: HEK293T cells, transient transfection
T7 sequence (P35348 1-466): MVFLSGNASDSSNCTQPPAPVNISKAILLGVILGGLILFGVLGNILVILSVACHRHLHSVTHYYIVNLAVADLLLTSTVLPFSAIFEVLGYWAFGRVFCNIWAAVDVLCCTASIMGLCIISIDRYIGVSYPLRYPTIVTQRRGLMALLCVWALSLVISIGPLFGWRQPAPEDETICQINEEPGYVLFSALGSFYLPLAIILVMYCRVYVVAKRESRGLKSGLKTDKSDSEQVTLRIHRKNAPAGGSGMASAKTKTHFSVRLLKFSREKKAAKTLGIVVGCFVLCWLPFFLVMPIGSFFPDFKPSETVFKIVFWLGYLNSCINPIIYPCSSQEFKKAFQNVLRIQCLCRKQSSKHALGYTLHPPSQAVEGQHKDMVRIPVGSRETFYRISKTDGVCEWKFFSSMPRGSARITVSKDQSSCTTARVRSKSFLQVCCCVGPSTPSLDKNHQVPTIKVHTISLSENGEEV

[9] = biological target: T8, human serotonin 5-HT2A receptor (Homo sapiens, UniProt P28223); experiment: Competition binding, [3H]ketanserin, HEK293T membranes; details: ± SD of two experiments
T8 construct: expressed in transfected cells; host or cells: HEK293T cells, transient transfection
T8 sequence (P28223 whole entry): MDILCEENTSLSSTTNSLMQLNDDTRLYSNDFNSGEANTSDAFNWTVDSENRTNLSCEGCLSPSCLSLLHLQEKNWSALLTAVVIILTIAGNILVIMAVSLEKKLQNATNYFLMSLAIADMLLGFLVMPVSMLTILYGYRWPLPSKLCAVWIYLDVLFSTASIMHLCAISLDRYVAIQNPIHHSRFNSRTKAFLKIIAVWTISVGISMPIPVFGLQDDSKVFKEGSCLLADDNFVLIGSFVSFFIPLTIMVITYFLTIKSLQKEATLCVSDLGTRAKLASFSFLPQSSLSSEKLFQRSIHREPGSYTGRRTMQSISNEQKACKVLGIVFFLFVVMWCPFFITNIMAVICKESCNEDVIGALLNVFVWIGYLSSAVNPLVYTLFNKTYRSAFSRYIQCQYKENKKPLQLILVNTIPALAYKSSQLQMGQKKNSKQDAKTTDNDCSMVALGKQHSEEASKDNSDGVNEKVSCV

| Ki [1] [nM] | Ki [2] [nM] | Ki [3] [nM] | difference in affinity, uncaged dechloroeticlopride over 4, 5 and 6 ([4]; at D2S and D3, radioligand displacement curves) | Ki ([4]; range over D2L, D2S, D3, stated in text) [nM] | Ki [5] [nM] | Ki [6] [nM] | Ki [7] [nM] | Ki [8] [nM] | Ki [9] [nM] | SMILES |
| --- | --- | --- | --- | --- | --- | --- | --- | --- | --- | --- |
| 2800 ± 180 |  |  |  |  |  |  |  |  |  | CCc1ccc(OC)c(C(=O)NC[C@@H]2CCCN2CC)c1OCc1ccccc1[N+](=O)[O-] [compound 4, (S)-3-Ethyl-N-[(1-ethylpyrrolidin-2-yl)methyl]-6-methoxy-2-[(2-nitrobenzyl)oxy]benzamide] |
| 25000 ± 3300 |  |  |  |  |  |  |  |  |  | CCc1ccc(OC)c(C(=O)NC[C@@H]2CCCN2CC)c1OCc1cc(OC)c(OC)cc1[N+](=O)[O-] [compound 5] |
|  | 1800 ± 420 | 100 ± 36 | more than 100 fold | 1.2 to 2.4 | 8900 ± 3000 | 49000 ± 17000 | 11000 ± 3600 | 880 ± 150 | 270 ± 28 | CCc1ccc(OC)c(C(=O)NC[C@@H]2CCCN2CC)c1O [dechloroeticlopride, (S)-3-Ethyl-N-[(1-ethylpyrrolidin-2-yl)methyl]-2-hydroxy-6-methoxybenzamide, reference compound] |
